“And” between values parts separate entries of the source, which are not always exact repeats. Equal entries are not always repeated. Structures can show the parent of a compound that is named as a salt. Where two headings read alike, the source gives them in different places.
How the values were obtained:
[1] = the molecule shown is the open-chain precursor, crosslinker bond, 11-membered ring
BCL-2 = BCL-2 (Homo sapiens, UniProt P10415); test: Protein-protein interaction assay BCL-2/Bad BH3 peptide, TR-FRET (BCL-2 assay, Assay 3); assay type: binding; conditions: His-BCL-2 / Bad BH3 peptide, median
MV-4-11 = test: Anti-proliferative effect in MV-4-11 cells, CellTiter-Glo (Assay 7); assay type: cell-based; conditions: MV-4-11, 72 hours incubation, CellTiter-Glo, several values per example, read-out: Antiproli MV-4-11
How it was run: (§1)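 72 h CTG viability assay, 37 °C, humidified. Time-zero plate as baseline; IC50 vs day 0 and DMSO controls.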

MCL-1 [2] = molecular target: T1, MCL-1 (Homo sapiens, UniProt Q07820, K194A/K197A/R201A); test: Protein-protein interaction assay MCL-1/Noxa BH3 peptide, TR-FRET (MCL-1 assay, Assay 1); assay type: binding; conditions: MCL-1 Assay [M] (median), MBP-MCL-1 / Noxa BH3 peptide
How it was run: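 TR-FRET competition between compounds and a biotin-PEG Noxa BH3 tracer for 1 nM MBP-MCL-1 (residues 173-321). Incubation was 1 h at 22 °C in the dark, then overnight at 4 °C, in 50 mM Tris pH 7 buffer with KF and DTT, after a 10-min compound pre-equilibration. Normalized ratios were fitted with a 4-parameter Hill equation to give IC50.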

SUDHL10 [3] = test: Induction of caspase-3/7 activity in SUDHL10 cells (Assay 4); assay type: cell-based; conditions: SUDHL10, 3 hours treatment, Caspase-Glo 3/7, median, read-out: Caspase SUDHL10 [M] (median)
How it was run: (§2)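 Luminescent Caspase-Glo 3/7 read-out in SUDHL5 and SUDHL10 cells after 3 h compound exposure at 37 °C, followed by 1 h reagent incubation.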

BCL-XL = BCL-XL (Homo sapiens, UniProt Q07817); test: Protein-protein interaction assay BCL-XL/Bad BH3 peptide, TR-FRET (BCL-XL assay, Assay 2); assay type: binding; conditions: His-BCL-XL / Bad BH3 peptide, median
Method: Protein-Protein Interaction Assay: BCL-XL/Bad BH3 Peptide (BCL-XL Assay)
The dose-dependent inhibition by the compounds described in this invention of the interaction between BCL-XL and the BH3 domain of Bad (both human) was determined using a steady state binding competition assay with time-resolved fluorescence energy transfer (TR-FRET) readout. For that purpose BCL-XL (amino acids 1-212, C-terminal fused to a hexahistidine (6×His) tag (SEQ ID 3) and a synthetic Bad BH3-derived peptide of sequence Biotin-PEG2-PEG2-[sequence]-Nle-[sequence]-amide (SEQ ID 4) served as protein receptor and tracer ligand respectively. The recombinant BCL-XL protein (expressed in E. coli) was purchased from BPS Bioscience (San Diego, Calif., USA). The Bad BH3-derived peptide can be obtained from e.g. Biosyntan (Berlin, Germany).
For that, 100-fold concentrated DMSO solutions were prepared by serial dilutions (1:3.4) of a 2 mM stock solution in a clear, 384-well microtiter plate (Greiner Bio-One, Frickenhausen, Germany). From there, 50 nl were transferred in a dark test plate (Greiner Bio-One, Frickenhausen, Germany). The assay was initiated by addition of 2 μl of a 2,5-fold concentrated His-BCL-XL solution (usually for a 1 nM end concentration in 5 μl reaction volume) in aqueous assay buffer [50 mM Tris/HCl pH 7, 100 mM sodium chloride (NaCl), 50 mM potassium fluoride (KF), 0.005% Tween-20, 2 mM DTT, 0.1% bovine gamma globulin (BGG)] to the compounds in the assay plate. This was followed by a 10-minute incubation step at 22° C. for pre-equilibration of the putative complex between His-BCL-XL and the compounds.
The mixture was incubated in the dark for one hour at 22° C. and then overnight at 4° C. The formation of BCL-XL/Bad complexes was determined by measuring the resonance energy transfer of the anti-His- Eu-cryptate antibody to the streptavidin-XL665 present in the reaction. For that purpose, the fluorescence emission at 620 nm and 665 nm after excitation at 330-350 nm was measured in a TR-FRET measuring instrument, for instance a Rubystar or a Pherastar (both from BMG Lab Technologies, Offenburg, Germany) or a Viewlux (Perkin-Elmer). The ratio of the emission at 665 nm and at 622 nm was used as indicator of the amount of BCL-XL/Bad complexes present.
The resulting data (ratio) were normalized, taking 0% inhibition as the mean value of control measurements (usually 32 data points) where all reagents were included. In this case 50 nl DMSO were used instead of compounds. […] IC50 values were determined by regression analysis based on a 4 parameter equation (minimum, maximum, IC50, Hill; Y=Max+(Min−Max)/(1+(X/IC50)^Hill) using the Screener Software (Genedata).

SUDHL10 [4] = test: Anti-proliferative effect in SUDHL10 cells, CellTiter-Glo (Assay 7); assay type: cell-based; conditions: Homo sapiens, SU-DHL10, SUDHL10, 72 hours incubation, median, read-out: Antiproli SUDHL10 [M] (median)
Method: Assessment of the Anti-Proliferative Effect of Compounds in Different Cell Lines
The impact of compounds on the proliferation of different cell lines was assessed using the CellTiter-Glo® Luminescent Cell Viability reagent from Promega (G7573).
In parallel, cells were plated in a reference (day 0) plate for time zero determination. Cells were incubated in a humidified incubator at 37° C. overnight.
Rim wells were excluded. The cells were incubated for 72 hours in a humidified incubator at 37° C. The day 0 plate was measured by adding 30 μL/well of CTG solution (CellTiter-Glo® Luminescent Cell Viability reagent, Promega G7573) to time zero wells in the reference plate followed by a 10 minutes incubation and luminescence reading at 0.1 ms. using the PHERAstar FS microplate reader (BMG Labtech).
After 72 hours incubation, the treated plates were measured in the same way as the day 0 plate mentioned above. The Bella DRC Master Sheet was used to calculate IC50s, with CI=day 0 values and C0=DMSO control values.

SUDHL5 [5] = test: Induction of caspase-3/7 activity in SUDHL5 cells (Assay 4); assay type: cell-based; conditions: SUDHL5, 3 hours treatment, Caspase-Glo 3/7, median, read-out: Caspase SUDHL5 [M] (median)
How it was run: as §2

AMO-1 = test: Anti-proliferative effect in AMO-1 cells, CellTiter-Glo (Assay 7); assay type: cell-based; conditions: AMO-1, 72 hours incubation, CellTiter-Glo, several values per example, read-out: Antiproli AMO-1
How it was run: as §1

SUDHL5 [6] = test: Anti-proliferative effect in SUDHL5 cells, CellTiter-Glo (Assay 7); assay type: cell-based; conditions: SUDHL5, 72 hours incubation, CellTiter-Glo, median, read-out: Antiproli SUDHL5 [M] (median)
How it was run: as §1

SUDHL5 [7] = test: Induction of cytotoxicity in SUDHL5 cells, CellTiter-Glo (Assay 6); assay type: cell-based; conditions: SUDHL5, 5 hours incubation, median, read-out: Cytotox SUDHL5 [M] (median)
How it was run: (§3)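 Luminescent ATP read-out (CellTiter-Glo) after 5 h compound exposure at 37° C. Cells seeded the day before; medium-only wells as background; rim wells excluded.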

SUDHL10 [8] = test: Induction of cytotoxicity in SUDHL10 cells, CellTiter-Glo (Assay 6); assay type: cell-based; conditions: SUDHL10, 5 hours incubation, median, read-out: Cytotox SUDHL10 [M] (median)
How it was run: as §3

MCL-1 [9] = molecular target: T1, MCL-1; test: Protein-compound interaction assay, surface plasmon resonance (SPR assay, Assay 8); assay type: binding; conditions: geometric mean
Excerpt: Protein-Compound Interaction Assay (SPR Assay)
The ability of the compounds described in this invention to bind to MCL-1 may be determined using surface plasmon resonance (SPR). This allows for the quantification of binding in terms of the equilibrium dissociation constant (KD [M]), as well as association and dissociation rate constants (kon [1/M 1/s] and koff [1/s], respectively). The measurements may be performed using Biacore® T200 or Biacore® S200 instruments (GE Healthcare).
Briefly, carboxymethylated dextran biosensor chips (Series S Sensor Chip CM5, GE Healthcare) were activated with 1-ethyl-3-(3-dimethylaminopropyl)-carbodiimide hydrochloride (EDC) and N-hydroxysuccinimide (NHS) according to the supplier's instructions. MBP-MCL-1 was diluted in 1×PBS-P+ (GE Healthcare) and injected on the activated chip surface. Subsequently, a solution of 1 M ethanolamine-HCl (GE Healthcare) was injected to block unreacted groups, resulting in approximately 400-2500 response units (RU) of immobilized protein. A reference surface was generated by treatment with NHS-EDC and ethanolamine-HCl. […] Compounds were injected for 60 s followed by a dissociation time of up to 1000 s.
The double-referenced sensorgrams were fit to a simple reversible Langmuir 1:1 reaction mechanism as implemented in the Biacore® T200 and S200 evaluation software (T200 evaluation software version 2.0 and S200 evaluation software version 1.0, GE Healthcare).

A2780 = test: Anti-proliferative effect in A2780 cells, CellTiter-Glo (Assay 7); assay type: cell-based; conditions: Homo sapiens, A2780, 72 h, A2780, 72 hours incubation, CellTiter-Glo; several values per example; read-out: Antiproli A2780
How it was run: as §1

Sequence of BCL-2 (P10415 1-211): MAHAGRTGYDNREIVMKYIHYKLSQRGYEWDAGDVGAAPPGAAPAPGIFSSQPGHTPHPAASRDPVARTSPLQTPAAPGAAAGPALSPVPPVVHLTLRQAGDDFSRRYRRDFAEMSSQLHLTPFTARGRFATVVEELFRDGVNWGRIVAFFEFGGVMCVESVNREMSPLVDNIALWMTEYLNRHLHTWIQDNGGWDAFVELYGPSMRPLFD
T1 sequence (Q07820 173-321 K194A/K197A/R201A, looked up): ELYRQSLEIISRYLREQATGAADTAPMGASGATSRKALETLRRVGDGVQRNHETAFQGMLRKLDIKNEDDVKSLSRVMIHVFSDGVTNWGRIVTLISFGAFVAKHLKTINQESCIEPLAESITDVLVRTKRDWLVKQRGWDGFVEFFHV
Sequence of BCL-XL (Q07817 1-212): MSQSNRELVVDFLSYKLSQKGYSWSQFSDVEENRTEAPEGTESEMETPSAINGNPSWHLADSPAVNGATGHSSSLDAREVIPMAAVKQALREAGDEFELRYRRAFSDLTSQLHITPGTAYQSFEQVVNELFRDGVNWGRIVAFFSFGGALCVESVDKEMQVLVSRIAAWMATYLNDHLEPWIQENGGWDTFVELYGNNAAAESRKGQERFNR

IC50 (BCL-2) [µM] | IC50 (MCL-1 [2]) [M] | EC50 (SUDHL10 [3]; Homo sapiens, SU-DHL10, 3 h) [M] | IC50 (BCL-XL) [µM] | IC50 (SUDHL10 [4]) [M] | EC50 (SUDHL5 [5]; Homo sapiens, SU-DHL-5, 3 h) [M] | IC50 (SUDHL5 [6]; Homo sapiens, SU-DHL-5, 72 h) [M] | Structure (SMILES) | IC50 (AMO-1) | IC50 (AMO-1; Homo sapiens, AMO1, 72 h) [µM] | further results
– | – | – | – | – | – | – | CCOC(=O)c1[nH]c2c(-c3c(CO)nn(C)c3CC)c(Cl)ccc2c1CCCOc1cccc2cc(F)ccc12 | – | – | ring closure, isolated yield ([1]; 1,2-bis(bromomethyl)benzene/Cs2CO3, THF/MeCN, 36.4 mM, 50.0 °C): 94%
17.8 | 3.2e-09 | 6.6e-06 | > 20 | 2.1e-06 | 1.4e-06 | 2e-06 | CCc1nn(C)c2c1-c1c(F)ccc3c(CCCOc4cccc5cc(F)ccc45)c(C(=O)O)n(c13)Cc1ccccc1COC2 (racemic) [Example 90, (rac)-14-Ethyl-15-fluoro-1-(3-((6-fluoronaphthalen-1-yl)oxy)propyl)-12-methyl-4,9,11,12-tetrahydrobenzo[3,4]pyrazolo[4′,3′:9,10][1,6]oxaazacycloundecino[8,7,6-hi]indole-2-carboxylic Acid] | 10.3 µM and 6.91 µM | 5.58 | IC50 (MV-4-11; Homo sapiens, MV4-11, 72 h): 4.98 µM; IC50 (MV-4-11): 8.53 µM and 6.99 µM
– | – | – | – | – | – | – | CCOC(=O)c1[nH]c2c(-c3c(CO)nn(C)c3C)c(Cl)ccc2c1CCCOc1cccc2ccccc12 | – | – | ring closure, isolated yield ([1]; 2,3-bis(chloromethyl)pyrazine/Cs2CO3/NaI, MeCN, 167.0 mM, 70.0 °C): 13%; ring closure, isolated yield ([1]; 2,3-bis(chloromethyl)pyridine HCl/Cs2CO3/NaI, MeCN, 94.0 mM, 75.0 °C): 10%
> 20 | 2.3e-09 | – | > 20 | – | – | – | Cc1c2c(nn1C)COCc1ccccc1Cn1c(C(=O)O)c(CCCOc3cccc4ccccc34)c3cccc-2c31 (single isomer, unassigned; enantiomer 1) [Example 2, 4,5-Dimethyl-17-[3-(naphthalen-1-yloxy)propyl]-5,7,9,14-tetrahydroindolo[7,1-fg]pyrazolo[3,4-d][2,8]benzoxazacycloundecine-16-carboxylic acid-N-ethylethanamine Salt (Enantiomer 1)] | – | – | EC50 (SUDHL10 [3]): 7.7e-06 M; IC50 (SUDHL5 [7]): 2.3e-06 M; EC50 (SUDHL5 [5]): 2e-06 M; IC50 (SUDHL10 [8]): 7.3e-06 M; Kd (MCL-1 [9]; KD [M], SPR, immobilized MBP-MCL-1, 25° C.): 6e-09 M; kon [1/M 1/s] (MCL-1 [9]; SPR, immobilized MBP-MCL-1, 25° C.): 1.1E7 1/M 1/s; koff (MCL-1 [9]; read-out: koff [1/s], SPR, immobilized MBP-MCL-1, 25° C.): 0.068 s⁻¹; IC50 (SUDHL5 [6]): 2.9e-06 M
– | – | – | – | – | – | – | CCOC(=O)c1[nH]c2c(-c3c(CC)nn(C)c3CO)c(Cl)ccc2c1CCCOc1cccc2cc(F)ccc12 | – | – | ring closure, isolated yield ([1]; 1,2-bis(bromomethyl)benzene/Cs2CO3, THF/MeCN, 35.9 mM, 50.0 °C): 62%
> 20 | 1.9e-09 | 5.2e-06 | > 20 | 1.9e-06 | 2.1e-06 | 3.3e-06 | CCc1c2c(nn1C)COCc1ccccc1Cn1c(C(=O)O)c(CCCOc3cccc4c3CCC4)c3ccc(F)c-2c31 (racemic) [Example 78, (rac)-1-(3-((2,3-Dihydro-1H-inden-4-yl)oxy)propyl)-14-ethyl-15-fluoro-13-methyl-4,9,11,13-tetrahydrobenzo[3,4]pyrazolo[4′,3′:9,10][1]oxa[6]azacycloundecino[8,7,6-hi]indole-2-carboxylic] | 6.82 µM | 6.61 | IC50 (A2780): 5.04 µM; IC50 (SUDHL5 [7]; Homo sapiens, SU-DHL-5, 5 h): 2.1e-06 M; IC50 (SUDHL10 [8]; Homo sapiens, SU-DHL10, 5 h): 3.7e-06 M
18 | 4.6e-09 | 5.2e-06 | > 20 | 3e-06 | 2.1e-06 | 3.3e-06 | Cc1nn(C)c2c1-c1c(F)ccc3c(CCCOc4cccc5cc(F)ccc45)c(C(=O)O)n(c13)Cc1ccccc1COC2 (racemic) [Example 81, (rac)-15-Fluoro-1-(3-((6-fluoronaphthalen-1-yl)oxy)propyl)-12,14-dimethyl-4,9,11,12-tetrahydrobenzo[3,4]pyrazolo[4′,3′:9,10][1]oxa[6]azacycloundecino[8,7,6-hi]indole-2-carboxylic Acid] | 7.08 µM and 4.13 µM | 6.52 | IC50 (MV-4-11; Homo sapiens, MV4-11, 72 h): 7.69 µM; IC50 (MV-4-11): 7.82 µM and 6.41 µM; IC50 (SUDHL5 [7]; Homo sapiens, SU-DHL-5, 5 h): 2.5e-06 M; IC50 (SUDHL10 [8]; Homo sapiens, SU-DHL10, 5 h): 4e-06 M
